Test results published in patent publication US20240325373A1, “METHODS AND COMPOSITIONS FOR INHIBITION OF DIHYDROOROTATE DEHYDROGENASE IN COMBINATION WITH AN ANTI-CD47-SIRPA THERAPEUTIC AGENT” (OHIO STATE INNOVATION FOUNDATION, priority 2021, published 2024).

How the values were obtained:
MV4-11 cells = assay: CALR, CD47 and SIRPα surface expression (MFI, flow cytometry) in MV4-11 cells after DHODHi treatment with or without uridine; format: cell-based; settings: 72 h; BRQ 500 nM, Cpd4 10, 25, 50, 100 nM, BAY 1 nM; reversible with 0.1 mM uridine
Experimental: MV4-11 cells were treated with vehicle (DMSO), brequinar (BRQ, 500 nM), Cpd4 (10, 25, 50, 100 nM), or BAY2402234 (BAY, 1 nM) for 72 hours, in the presence or absence of exogenous uridine (0.1 mM). After the 72-hour treatment, cells were collected, washed and stained for flow cytometric analysis and the mean fluorescent intensity (MFI) measured to determine calreticulin (CALR) and CD47 surface expression.
(§1) FIGS. 8A-8B show representative data for the Mean Fluorescent Intensity (MFI) of SIRPα (CD172a) surface expression following the indicated treatments. […] Briefly, cells were treated for 72 hours to determine SIRPα level using flow cytometry and determine if SIRPα level was different in the P53 mutant clones. As shown, SIRPα level appears modestly higher in the heterozygous P53 MV4-11 clone. […] Briefly, MV4-11 cells were treated for 72 hours with DHODHi with or without uridine to measure SIRPα surface expression post DHODHi therapy.

MOLM-13 cells = assay: Disseminated MOLM-13 xenograft, treatment from 4 days after implantation (Example 5); format: in vivo; set-up: ILS / Median survival: unit not given here; settings: for Statistical Significance: vs vehicle; for Median survival Ratio: Column A (vehicle) to Column B; for Median survival: treated group; for Hazard Ratio (Logrank) Ratio / Hazard Ratio (Mantel-Haenszel) Ratio: vehicle (Group 1) vs treated
Experimental: Briefly, ten week old male NCG mice (NOD-Prkdcem26Cd52//2rgem26Cd22/NjuCrl, Charles River) were injected intravenously (i.v.) in the tail vein with 1×10^5 MOLM-13 cells resuspended in cold phosphate buffer saline (PBS), using 0.2 mL of a suspension at 5×10^5 MOLM-13 cells/mL. Four days after tumor cell implantation, which was designated as Day 1 of the study, mice were randomized into eight treatment groups (n=10) based on body weights. Note that for the sample administration above, vehicle was a 50/50 mix of 40% HPBCD in sterile water and 10% Ethanol/90% PEG400. […] The remaining mice were left on study to monitor for an additional 25 days to determine if any residual disease would relapse following drug cessation. Thus, at day 106, all remaining mice were euthanized and spleens and bone marrow were harvested and analyzed by flow cytometry to investigate whether residual disease was present.

[1] = tested on: MV4-11 P53 wild type, heterozygous and homozygous clones; assay: Sensitivity and CD47/SIRPα surface expression of MV4-11 P53 clones treated with DHODHi; format: cell-based; settings: 72 h; reversed with 0.1 mM exogenous uridine
Experimental: MV4-11 cell line was reported to harbor a R248W TP53 hotspot mutation (Yan B, Chen Q, Xu J, Li W, Xu B, Qiu Y. Leukemia 2020 doi 10.1038/s41375-020-0710-7.). Accordingly, the MV4-11 cell line was single cell sorted to separate the P53 mutant sub-clone and generated three clones; P53 wild type, P53 heterozygous, and P53 homozygous to interrogate the potential role of P53 mutation on DHODHi activity and if DHODHi affected CD47 expression. Therefore, MV4-11 clones were treated with DHODHi, brequinar (BRQ) or Cpd4 for 72 hours. Cells were then collected, washed with PBS then stained for flow cytometry analysis of CD47 surface expression and the overall sensitivity of the MV4-11 clones to DHODHi.
as §1

MOLM-13 tumor cells = assay: Disseminated MOLM-13 aggressive xenograft, treatment from 10 days after implantation (Example 6); format: in vivo; settings: for BW Nadir (Lowest Mean Body Weight for Group): % of initial mean BW
Experimental: Briefly, NCG mice were i.v. injected in the tail vein with 1×10^5 MOLM-13 tumor cells suspended in PBS in a cell injection volume of 0.2 mL/mouse. Animals were randomized into treatment groups based on Day 1 body weight. The study start date (Day 1) was at 10 days post implant (tumor injection). In the study, males were separated into single housing if excessive fighting or aggressive behavior was observed. The animals were 8 to 12 weeks old at study start. […] Any group with a mean body weight loss of >20% or >10% mortality had dosing terminated, but not euthanized, and allowed to recover. Within a group, any individual animal with a >20% weight loss endpoint were euthanized. […] At the endpoint, the animals were euthanized per standard procedure. Clinical signs associated with progression of tumor include impairment of hind limb function, ocular proptosis, and weight loss. Full hindlimb paralysis, ocular proptosis, or moribundity were considered sufficient for euthanasia.

U266B1 = assay: CD47 surface expression and viability by flow cytometry in multiple myeloma cell line U266B1; format: cell-based; settings: three concentrations of Cpd4
Experimental: (§2) Briefly, tumor cells were typically grown at 37° C. in a humidified atmosphere with 5% C02 in RPMI 1640 medium, supplemented with 10% (v/v) fetal calf serum and 50 μg/ml gentamicin for up to 20 passages, and were typically passaged once or twice weekly. Cells were harvested by centrifugation, and the percentage of viable cells were determined using a CASY Model TT cell counter (OMNI Life Science). Cells were harvested from exponential phase cultures, counted and plated in […] plates at a cell density depending on the cell line's growth rate in RPMI 1640 medium supplemented with 10% (v/v) fetal calf serum and 50 µg/ml gentamicin (140 μl/well). At the time of plating, a t=0 h timepoint was taken as a baseline measurement (dotted horizontal lines in the figures). Cultures were incubated at 37° C. and 5% C02 in a humidified atmosphere. At 24 h after cell seeding, DMSO (vehicle control) or the test compound at three different concentrations was added, and left on the cells for another 48 h, 96 h, or 144 h. […] After standard washing techniques, the cells were analyzed on an Attune NxT Acoustic Focusing Cytometer (Thermo Fisher Scientific, Waltham, MA). Antibody Binding Capacity (ABC) was determined using Quantum™ Simply Cellular® quantification beads (Bio-Rad Laboratories, Hercules, CA).

H929 = assay: CD47 surface expression by flow cytometry in multiple myeloma cell line H929; format: cell-based; settings: from 48 h after the start of treatment
Experimental: as §2

MM1.S = assay: CD47 surface expression by flow cytometry in multiple myeloma cell line MM1.S; format: cell-based; settings: from 48 h after the start of treatment
Experimental: as §2

[2] = Separate cell-based assays (IC50 of Cpd4)
[3] = tested on: a variety of unrelated viruses; settings: in vitro; Harvey et al. (2009); read-out: EC50, inhibition of virus replication; cited from earlier work

**Q.** For `CCn1c(CO)nn(-c2cc(O[C@@H](C)C(F)(F)F)c(C(=O)Nc3c(F)cccc3Cl)cc2F)c1=O` [BAY2402234, N-(2-chloro-6-fluorophenyl)-4-(4-ethyl-3-(hydroxymethyl)-5-oxo-4,5-dihydro-1H-1,2,4-triazol-1-yl)-5-fluoro-2-((1,1,1-trifluoropropan-2-yl)oxy)benzamide, reference compound], which “CALR surface expression (MFI)” value (MV4-11 cells) is on record?
**A.** upregulated

**Q.** What about the “CD47 surface expression (MFI)” value (MV4-11 cells) of the same molecule?
**A.** upregulated

**Q.** What about the “Deaths NTRa” value (MOLM-13 cells; 4 mg/kg po qd) of the same molecule?
**A.** 1

**Q.** What about the ILS (MOLM-13 cells; 4 mg/kg po qd) of the same molecule?
**A.** 144

**Q.** And the “Mean BW Nadir” value (MOLM-13 cells; 4 mg/kg po qd)?
**A.** −5.7%

**Q.** What about the “Median TTE” value (MOLM-13 cells; 4 mg/kg po qd) of the same molecule?
**A.** 44.0

**Q.** What about the “n Remaining Day 106” value (MOLM-13 cells; 4 mg/kg po qd) of the same molecule?
**A.** 0

**Q.** And the “Statistical Significance” value (MOLM-13 cells; 4 mg/kg po qd)?
**A.** *** (*** = P ≤ 0.001)

**Q.** What about the “Median survival Ratio” value (MOLM-13 cells; 4 mg/kg po qd) of the same molecule?
**A.** 0.4091

**Q.** What about the “Median survival” value (MOLM-13 cells; 4 mg/kg po qd) of the same molecule?
**A.** 44

**Q.** What about the “Hazard Ratio (Logrank) Ratio” value (MOLM-13 cells; 4 mg/kg po qd) of the same molecule?
**A.** 4.397

**Q.** What about the “Hazard Ratio (Mantel-Haenszel) Ratio” value (MOLM-13 cells; 4 mg/kg po qd) of the same molecule?
**A.** 21.48

**Q.** For `Cc1c(-c2ccc(-c3ccccc3F)cc2)nc2ccc(F)cc2c1C(=O)O` [BRQ, 6-fluoro-2-(2′-fluoro-1,1-biphenyl-4-yl)-3-methyl-4-quinolinecarboxylic acid, reference compound], which “CALR surface expression (MFI)” value (MV4-11 cells) is on record?
**A.** upregulated

**Q.** And the “CD47 surface expression (MFI)” value (MV4-11 cells)?
**A.** upregulated

**Q.** What about the CD47 surface expression [1] of the same molecule?
**A.** upregulate surface CD47 expression regardless of the P53 mutation status

**Q.** What about the SIRPα surface expression [1] of the same molecule?
**A.** upregulate surface SIRPα expression regardless of the P53 mutation status

**Q.** Which results are given for `CCCCOc1cccc(-c2ccc(-c3cc(C(=O)O)c4cc(F)ccc4n3)cc2)c1` [Cpd4, 2-(3′-butoxy-[1,1′-biphenyl]-4-yl)-6-fluoroquinoline-4-carboxylic acid]?
**A.** CALR surface expression (MFI) (MV4-11 cells): upregulated; CD47 surface expression (MFI) (MV4-11 cells): upregulated; CD47 surface expression [1]: upregulate surface CD47 expression regardless of the P53 mutation status; SIRPα surface expression [1]: upregulate surface SIRPα expression regardless of the P53 mutation status; ILS (MOLM-13 cells; 4 mg/kg po qd): 125; Mean BW Nadir (MOLM-13 cells; 4 mg/kg po qd): −4.1%; Median TTE (MOLM-13 cells; 4 mg/kg po qd): 40.5; n Remaining Day 106 (MOLM-13 cells; 4 mg/kg po qd): 0; Statistical Significance (MOLM-13 cells; 4 mg/kg po qd): *** (*** = P ≤ 0.001); Deaths TR (MOLM-13 cells; 10 mg/kg po qd): 0; ILS (MOLM-13 cells; 10 mg/kg po qd): 183; Mean BW Nadir (MOLM-13 cells; 10 mg/kg po qd): −3.5%; Median TTE (MOLM-13 cells; 10 mg/kg po qd): 51.0; n Remaining Day 106 (MOLM-13 cells; 10 mg/kg po qd): 0; Statistical Significance (MOLM-13 cells; 10 mg/kg po qd): *** (*** = P ≤ 0.001); Median survival Ratio (MOLM-13 cells; 4 mg/kg po qd): 0.4444; Median survival Ratio (MOLM-13 cells; 10 mg/kg po qd): 0.3529; Median survival (MOLM-13 cells; 4 mg/kg po qd): 40.5; Median survival (MOLM-13 cells; 10 mg/kg po qd): 51; Hazard Ratio (Logrank) Ratio (MOLM-13 cells; 4 mg/kg po qd): 4.553; Hazard Ratio (Mantel-Haenszel) Ratio (MOLM-13 cells; 4 mg/kg po qd): 25.21; Hazard Ratio (Logrank) Ratio (MOLM-13 cells; 10 mg/kg po qd): 4.553; Hazard Ratio (Mantel-Haenszel) Ratio (MOLM-13 cells; 10 mg/kg po qd): 25.21; ILS (Increased Life Span) (MOLM-13 tumor cells; Cpd4 4.12 mg/kg po qd to end): 174.1; Median TTE (Median Time to Endpoint) (MOLM-13 tumor cells; Cpd4 4.12 mg/kg po qd to end): 37 days; NTR (No. of Non-treatment-related Deaths, due to Accident/Unknown Etiology) (MOLM-13 tumor cells; Cpd4 4.12 mg/kg po qd to end): 0; NTRm (No. of Non-treatment-related Deaths, due to Metastasis) (MOLM-13 tumor cells; Cpd4 4.12 mg/kg po qd to end): 0; TR (No. of Treatment-related Deaths) (MOLM-13 tumor cells; Cpd4 4.12 mg/kg po qd to end): 0; s (Number of Remaining Animals) (MOLM-13 tumor cells; Cpd4 4.12 mg/kg po qd to end): 0; BW Nadir (Lowest Mean Body Weight for Group) (MOLM-13 tumor cells; Cpd4 4.12 mg/kg po qd to end): −9.0% (35); ILS (Increased Life Span) (MOLM-13 tumor cells; Cpd4 10.31 mg/kg po qd to end): 225.9; Median TTE (Median Time to Endpoint) (MOLM-13 tumor cells; Cpd4 10.31 mg/kg po qd to end): 44 days; NTR (No. of Non-treatment-related Deaths, due to Accident/Unknown Etiology) (MOLM-13 tumor cells; Cpd4 10.31 mg/kg po qd to end): 0; NTRm (No. of Non-treatment-related Deaths, due to Metastasis) (MOLM-13 tumor cells; Cpd4 10.31 mg/kg po qd to end): 0; TR (No. of Treatment-related Deaths) (MOLM-13 tumor cells; Cpd4 10.31 mg/kg po qd to end): 0; s (Number of Remaining Animals) (MOLM-13 tumor cells; Cpd4 10.31 mg/kg po qd to end): 5; BW Nadir (Lowest Mean Body Weight for Group) (MOLM-13 tumor cells; Cpd4 10.31 mg/kg po qd to end): −5.2% (42); overall cell viability (U266B1; 48 h, 96 h, 144 h): dose-dependent correlation in Cpd4 concentration and overall cell viability; surface expression of CD47 (median fluorescence intensity, antibody binding capacity) (U266B1; 96 h and 144 h): increased in a dose-dependent manner; CD47 surface expression (H929): increase in CD47 surface expression in these cell lines apparent starting at 48 h; CD47 surface expression (MM1.S): increase in CD47 surface expression in these cell lines apparent starting at 48 h; IC50 [2]: 11 nM

**Q.** Which EC50 [3] does the source give for `O=C(N[C@@H]1CCCc2c1[nH]c1ccc(Cl)cc21)c1ccccn1` [GSK983] here?
**A.** 5 to 20 nM
